Test results reported in article PMC12135066, “Design and Preclinical Evaluation of Novel uPAR-Targeting Radiopeptides Modified with an Albumin-Binding Entity” (Molecular Pharmaceutics, 2025).

Key:
[1] = system: human serum albumin (HSA); assay: Albumin-binding properties in human blood plasma (ultrafiltration assay); conditions: ultrafiltration (Amicon, 10 kDa), human blood plasma dilutions in PBS pH 7.4, [HSA]-to-[radiopeptide] 0.01–20000, 0.006 nmol, 37 °C 30 min, γ-counter; inverse ratio of B50, [177Lu]Lu-uPAR-01 set as 1.00; average curve of 3 experiments
Protocol: The relative albumin-binding affinities of the radiopeptides in mouse and human blood plasma were determined using an ultrafiltration assay with Amicon centrifugal filters (cutoff of 10 kDa; Merck Millipore), as previously reported (Supporting Information). A fixed amount of the respective radiopeptide (15 μL, ∼300 kBq, 0.006 nmol) was added to a defined volume (150 μL) of mouse and human blood plasma dilutions to obtain [mouse serum albumin (MSA)]-to-[radiopeptide] and [human serum albumin (HSA)]-to-[radiopeptide] molar concentration ratios of 0.01–12,500 and 0.01–20,000, respectively. The data were analyzed using a semilogarithmic Hill plot with the maximum binding set as 100% (GraphPad Prism software, version 8.3.1).
Determination of the Albumin-Binding Properties
Purpose: The radiopeptides were investigated with regard to their albumin-binding capabilities in vitro
as a measure to predict blood retention in vivo.
Methods: The relative albumin-binding affinity of the radiopeptides in mouse blood plasma (Rockland
Immunochemicals, Inc., U.S.A.) and human blood plasma (Stiftung Blutspende SRK Aargau-
Solothurn, Switzerland) were determined using an ultrafiltration method. The amount of mouse serum
albumin (MSA) and human serum albumin (HSA) in mouse and human blood plasma was defined as
550 μM and 800 μM, respectively, based on measurements using a dry chemistry analyzer (DRI-CHEM
4000i, FUJIFILM, Japan). A fixed amount of radiopeptide (50 MBq/nmol, ~300 kBq, 15 μL, 0.006
nmol) was added to a defined volume (150 μL) of mouse and human blood plasma and various dilutions
thereof in PBS pH 7.4, resulting in defined [MSA]-to-[radiopeptide] or [HSA]-to-[radiopeptide] molar
concentration ratios ranging from 0.01 ‒12500 and 0.01‒20000, respectively, followed by incubation of
the samples at 37 °C for 30 min. Ice-cold PBS (150 µL, pH 7.4) was added before loading the blood
plasma samples on Amicon centrifugal filters (cut -off of 10 kDa; Merck Millipore) followed by
centrifugation (14000 rcf, 30 min, 4 °C) to allow the separation of the plasma protein -bound from the
plasma-unbound (free) fractions of each sample. The inserts of the filter devices were inverted and centrifuged at 200 rcf for 3 min to recover the protein -bound radiopeptide. The activity in the filtrate
and filter unit was measured in a γ-counter (1480 Wizard, PerkinElmer) and the counts were combined
assuming that the fraction retained in the filter membrane was not bound to proteins. The protein -bound
fraction was expressed as percentage of the whole activity (i.e. plasma protein -bound activity, activity
measured in the filtrate and activity measured in the filter (set as 100%) ). The data were analyzed using
a semi-logarithmic plot assuming a maximum binding of 100%. The Hill equation was fitted to the data
points and the half -maximum binding ( B50) based on the average curve obtained from three independent
experiments (GraphPad Prism software, version 8.3 .1). The relative albumin-binding affinit ies of the
reference compound, whose relative binding affinity was set as 1.0. The results were presented as the
B50 value obtained from the average curve from 3 independent experiments.

[2] = Biodistribution studies in HEK-uPAR xenograft-bearing nude mice; conditions: female, CD1/nude, mouse, 5 MBq (0.5 nmol), total radioactivity, 5 MBq, 0.5 nmol, decay-corrected, average ± SD, n=3 animals; for tissue uptake at 4 h: 4 h p.i.; for tissue uptake at 24 h: 24 h p.i.
Protocol: (§1) All applicable international, national, and/or institutional guidelines for the care and use of laboratory animals were followed, and the herein reported experiments were carried out according to the guidelines of the Swiss Regulations for Animal Welfare. The preclinical studies were ethically approved by the Cantonal Committee of Animal Experimentation and permitted by the responsible cantonal authorities (License No. 75721). Five-week-old female CD1/nude (Crl:CD1-Foxn ^ nu ) and female immunocompetent FVB (FVB/NCrl) mice were obtained from Charles River Laboratories (Sulzfeld, Germany). All mice were acclimatized for at least 7 days, receiving standard rodent chow ad libitum before being included in the reported studies. The CD1/nude mice were subcutaneously inoculated with HEK-uPAR cells (7 × 10^6 cells in 100 μL PBS) on the right shoulder. […] Typically, it took 3–11 weeks to reach xenograft volumes of 40–600 mm^3 at the time of testing the tissue distribution of the radiopeptides. The immunocompetent FVB mice were used for testing the in vivo stability of the radiopeptides.
(§2) The mice were injected with the radiopeptides (5 MBq, 0.5 nmol, 100 μL) in saline containing 0.05% BSA and sacrificed at 4 and 24 h after injection of the radiopeptides. Selected tissues and organs were collected, weighed, and measured with the γ-counter (1480 Wizard, PerkinElmer). […] A p-value of <0.05 was considered a statistically significant difference (GraphPad Prism software, version 8.3.1).
(§3) Decay-corrected data is shown as average ± SD of n = 3 animals of % injected activity per gram (IA/g) tissue.

[3] = system: HEK-uPAR xenograft-bearing nude mice; assay: as above; conditions: average ± SD, n=3 animals
Protocol: as §1, §2, §3

[4] = Stability of the radiopeptides in mouse blood plasma; conditions: mouse
Protocol: (§4) The radiopeptides (50 MBq/nmol) stabilized with L-ascorbic acid were diluted in mouse and human blood plasma and incubated at 37 °C. Aliquots were taken after 1, 4, and 24 h and analyzed using reversed-phase thin-layer chromatography (TLC) (Supporting Information).
(§5) aProduct peak expressed as percentage of the sum of integrated peak areas of the entire chromatogram relative to
(§6) the value obtained immediately after labeling (set as 100%), average ± standard deviation (SD) (n=3).
(§7) Stability of the Radiopeptides in Mouse and Human Blood Plasma
(§8) Purpose: The stability of the radiopeptides was assessed in mouse and human blood plasma as an
indication for their in vivo stability.
(§9) Methods: The radiopeptides (50 MBq/nmol) stabilized with L-ascorbic acid were diluted in mouse
(§10) blood plasma (Lot: 32321, Rockland Immunochemicals Inc., U.S.A.) or in human blood plasma
(§11) (Stiftung Blutspende SRK Aargau -Solothurn, Switzerland) at a concentration of 10 MBq/200 µL and
(§12) incubated at 37 °C over a 24 h time period. Control samples were prepared by diluting the radiopeptides
(§13) in saline at the same activity concentration. Aliquots of each dilution were taken after 1 h, 4 h, and 24 h
(§14) (2 µL, ~100 kBq) and investigated employing thin layer chromatography (TLC) methods on reversed-
(§15) phase TLC plates (MERCK Analytical Chromatography, TLC Silica gel 60 RP -18 F254s) as stationary
(§16) phase and a 3/7 (v/v) mixture of acetonitrile /citrate buffer (0.1 M, pH 5.5) as mobile phase. A dilution
(§17) of [177Lu]LuCl3/HCl 0.04 M (10 MBq/200 µL) was added on each TLC plate. The developed and dried
(§18) TLC plates were exposed to a phosphor screen (Super resolution screen PSR10450013, PerkinElmer)
(§19) for 1 min. The screen was read with a Cyclone Plus phosphor imager (PerkinElmer) and the peak
(§20) quantification was performed using OptiQuant Software (version 5.0).

[5] = n-Octanol/PBS distribution coefficients (logD values); conditions: n-octanol/PBS pH 7.4, pH 7.4
Protocol: The radiopeptides diluted in phosphate-buffered saline (PBS) pH 7.4 (25 μL, ∼0.5 MBq, 0.01 nmol) were added to a mixture of PBS pH 7.4 (1475 μL) and n-octanol (1500 μL). The vials were vortexed vigorously for 1 min, followed by centrifugation (560 rcf, 6 min) for phase separation. Aliquots were taken from each phase and measured in a γ-counter (1480 Wizard, PerkinElmer). The distribution coefficients were calculated as the logarithmic value of the ratio of counts per minute (cpm) measured in the n-octanol phase relative to the cpm measured in the PBS phase.
Methods: The logD value of all radiopeptides was determined in a mixture of n-octanol and phosphate
buffered saline (PBS) pH 7.4 using phase separation followed by liquid-liquid extraction.
polystyrene radioimmunoassay (RIA) tubes were prepared for each radiopeptide with 1.5 mL n-octanol
and 1.475 mL PBS pH 7.4. The RIA tubes were rigorously vortexed and subsequently let to stand so
that the phase separation could take place. The radiopeptides (50 MBq/nmol) were diluted with PBS
pH 7.4 to obtain an activity concentration of 10 MBq/0.5 mL. A volume of 25 μL of these solutions
was added to each RIA tube (25 µL, ~0.5 MBq, 0.01 nmol) followed by vortexing for 1 min.
separation was achieved by centrifugation at 560 rcf for 6 min. The activity in the n-octanol and PBS
phase, respectively, was measured in a γ-counter (Wallac Wizard 1480, PerkinElmer).
coefficients were calculated as the logarithm of the ratio of counts per minute (cpm) measured in the n-
octanol phase relative to the cpm measured in the PBS pH 7.4 phase.
as described above three independent times for each radiopeptide.

[6] = Radiolytic stability of the radiopeptides in saline with L-ascorbic acid; conditions: 50 MBq/nmol in saline, 150 MBq/300 µL, L-ascorbic acid (3 mg, 20 µL) and NaOAc (0.5 M, 30 µL), HPLC, product peak relative to t=0 (100%), average ± SD, n=3
Protocol: The radiolytic stability of the radiopeptides (50 MBq/nmol) in saline (150 MBq/300 μL) was assessed in the absence and presence of L-ascorbic acid (3 mg added in a volume of 20 μL). After an incubation period of 1, 4, and 24 h, aliquots of the solutions were analyzed using HPLC. The integrated peak area representing the intact radiopeptide was expressed as the percentage of the sum of all peaks of the chromatogram. The final amount of intact radiopeptide was expressed as the percentage of the product peak obtained at t = 0, which was set as 100% (Supporting Information).
The radiolytic stability of [177Lu]Lu-DOTA-AE105 and the new 177Lu-labeled uPAR-targeting
radiopeptides (50 MBq/nmol) was assessed in vitro in the formulated solution . The radiopeptide s were
diluted in saline to obtain an activity concentration of 150 MBq in 300 µL in the presence of L-ascorbic
acid (3 mg, 20 µL) and NaOAc (0.5 M, 30 µL) to compensate for the acidic pH. Aliquots of the dilutions
were analyzed using HPLC after incubation periods of 1 h, 4 h and 24 h . The integrated peak area
measured for the intact radioligand peak was expressed as the percentage of the sum of the integrated
peak areas of each peak present in the chromatogram. The final amount of intact radiopeptide at t = 1 h,
4 h and 24 h was expressed by correcting the obtained percentage of the product peak to this peak
obtained at t = 0, which was set as 100%.

human uPAR = biological target: T1, human uPAR (Homo sapiens, UniProt Q03405); assay: uPAR-binding affinity (KD values), saturation experiments with HEK-uPAR cells; conditions: saturation binding on HEK-uPAR cells, on ice (4 °C) 1 h, 1–1600 nM radiopeptide, ± AE105 40 µM; γ-counter; nonlinear regression; average ± SD, n=3
T1 construct: host or cells: HEK cells (HEK-uPAR)
Protocol: To determine the uPAR-binding affinity of the radiopeptides, saturation experiments were performed using HEK-uPAR cells in 48-well plates (Supporting Information). The cells were incubated on ice for 1 h in the presence or absence of excess AE105 (final concentration of 40 μM) together with the respective radiopeptide at a concentration range of 1–1600 nM. After rinsing the cells with PBS, they were lysed with an aqueous NaOH solution (1 M, 600 μL), transferred to radioimmunoassay tubes, and measured in a γ-counter (1480 Wizard, PerkinElmer). The K D values were determined by plotting the specific binding (values of samples incubated without AE105 minus the values of samples incubated with AE105) against the molar concentration of the added peptide. A nonlinear regression analysis was performed using GraphPad Prism software (version 8.3.1). The results were expressed as average ± SD of n = 3 independently performed experiments. […]
7. Determination of uPAR-Binding Affinity (KD Values)
Purpose: The uPAR-binding affinity of the radiopeptides were determined to investigate the impact of structural changes on the receptor binding.
Methods: HEK-uPAR cells were seeded in poly-D-lysine-coated 48-well plates (0.25 × 10 6 in 0.5 mL per well) using DMEM cell culture medium with supplements. The cells were incubated at 37 °C and 5% CO2 overnight to allow adhesion and growth. After removing the supernatant, the well plates with HEK-uPAR cells were placed on ice to prevent internalization of the radiopeptides. The cells were rinsed with cold PBS (0.5 mL, pH 7.4) followed by the addition of DMEM cell culture medium without supplements (450 µL/well) in the presence or absence of AE105 ( final concentration 40 µM) as a receptor-blocking agent. The radiopeptides (5 MBq/nmol) were diluted in PBS to obtain peptide concentrations ranging from 10 ‒16000 nM. From each dilution, 50 µL were added to each well to obtain final peptide concentrations of 1 nM to 1600 nM. The cells were incubated at 4 °C for 1 h before rinsing twice with PBS (0.5 mL, pH 7.4). The cells were lysed using an aqueous NaOH solution (1 M, 600 µL) and the lysates were transferred to RIA tubes for counting the activity in a γ-counter (1480 Wizard, PerkinElmer) . The KD values were determined by plotting specific binding (total binding minus unspecific binding) against the molar concentration of the added radiopeptide using GraphPad Prism (version 8.3.1). the results were then expressed as average K D values ± SD of n = 3 independent […]
Results: The results are reported in the main article.

[7] = Stability of the radiopeptides in human blood plasma; conditions: human
Protocol: as §4, §5, §6, §7, §8
indication for their in vivo stability.
as §9, §10, §11, §12, §13, §14, §15, §16, §17, §18, §19, §20

[8] = HEK-uPAR xenograft, HEK-uPAR xgft

T1 sequence (Q03405 23-335): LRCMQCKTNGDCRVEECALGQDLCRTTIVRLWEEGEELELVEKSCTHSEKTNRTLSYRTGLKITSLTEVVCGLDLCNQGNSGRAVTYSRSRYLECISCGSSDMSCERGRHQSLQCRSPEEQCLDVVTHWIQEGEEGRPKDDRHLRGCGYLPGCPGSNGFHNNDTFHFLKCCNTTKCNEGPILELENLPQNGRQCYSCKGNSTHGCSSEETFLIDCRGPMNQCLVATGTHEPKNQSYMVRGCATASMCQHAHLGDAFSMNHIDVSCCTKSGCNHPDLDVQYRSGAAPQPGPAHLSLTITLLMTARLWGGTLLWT

- Relative albumin-binding affinity, human blood plasma [1]: 1.00
- tissue uptake at 4 h [2, 8]: 9.2 ± 0.2 %ID/g
- tissue uptake at 24 h [2, 8]: 5.8 ± 0.6 %ID/g
- tissue uptake at 4 h ([2]; blood): 16 ± 1 %ID/g
- tissue uptake at 24 h ([2]; blood): 4.5 ± 0.2 %ID/g
- tissue uptake at 4 h ([2]; bone): 1.9 ± 0.1 %ID/g
- tissue uptake at 24 h ([2]; bone): 0.81 ± 0.01 %ID/g
- tissue uptake at 4 h ([2]; brain): 0.32 ± 0.02 %ID/g
- tissue uptake at 24 h ([2]; brain): 0.1 ± 0.01 %ID/g
- tissue uptake at 4 h ([2]; heart): 5.7 ± 0.2 %ID/g
- tissue uptake at 24 h ([2]; heart): 1.9 ± 0.1 %ID/g
- tissue uptake at 4 h ([2]; intestines): 2.3 ± 0.3 %ID/g
- tissue uptake at 24 h ([2]; intestines): 0.94 ± 0.04 %ID/g
- tissue uptake at 4 h ([2]; kidneys): 5.6 ± 0.2 %ID/g
- tissue uptake at 24 h ([2]; kidneys): 4.2 ± 0.8 %ID/g
- tissue uptake at 4 h ([2]; liver): 6.4 ± 0.3 %ID/g
- tissue uptake at 24 h ([2]; liver): 1.8 ± 0.2 %ID/g
- tissue uptake at 4 h ([2]; lung): 9.4 ± 1 %ID/g
- tissue uptake at 24 h ([2]; lung): 3.3 ± 0.3 %ID/g
- tissue uptake at 4 h ([2]; muscle): 1.4 ± 0.2 %ID/g
- tissue uptake at 24 h ([2]; muscle): 0.57 ± 0.07 %ID/g
- tissue uptake at 4 h ([2]; pancreas): 2 ± 0.3 %ID/g
- tissue uptake at 24 h ([2]; pancreas): 0.77 ± 0.04 %ID/g
- tissue uptake at 4 h ([2]; salivary glands): 3.6 ± 0.3 %ID/g
- tissue uptake at 24 h ([2]; salivary glands): 1.5 ± 0.1 %ID/g
- tissue uptake at 4 h ([2]; spleen): 2.7 ± 0.1 %ID/g
- tissue uptake at 24 h ([2]; spleen): 1.7 ± 0.2 %ID/g
- tissue uptake at 4 h ([2]; stomach): 2 ± 0.1 %ID/g
- tissue uptake at 24 h ([2]; stomach): 0.78 ± 0.08 %ID/g
- Xenograft-to-blood ratio ([3]; 4 h p.i.): 0.57 ± 0.01
- Xenograft-to-kidney ratio ([3]; 4 h p.i.): 1.6 ± 0.1
- Xenograft-to-liver ratio ([3]; 4 h p.i.): 1.4 ± 0.1
- Xenograft-to-blood ratio ([3]; 24 h p.i.): 1.3 ± 0.1
- Xenograft-to-kidney ratio ([3]; 24 h p.i.): 1.4 ± 0.3
- Xenograft-to-liver ratio ([3]; 24 h p.i.): 3.3 ± 0.3
- remaining at 1 h, 10 MBq/200 µL ([4]; blood plasma): 100%
- remaining at 24 h, 10 MBq/200 µL ([4]; blood plasma): 99 ± 1%
- remaining at 4 h, 10 MBq/200 µL ([4]; mouse blood plasma): 100%
- logD [5]: 0.78 ± 0.05
- radiolytic stability, % intact radiopeptide ([6]; 1 h): 100 ± 0%
- radiolytic stability, % intact radiopeptide ([6]; 4 h): 100 ± 0%
- radiolytic stability after 24 h, intact radiopeptide [%] ([6]; 24 h): 93 ± 4%
- Kd (human uPAR): 48 ± 6 nM
- remaining at 1 h, 10 MBq/200 µL ([7]; blood plasma): 100%
- remaining at 24 h, 10 MBq/200 µL ([7]; blood plasma): 99 ± 1%
- remaining at 4 h, 10 MBq/200 µL ([7]; human blood plasma): 99 ± 2%
Structure (SMILES): CC(C)C[C@H](NC(=O)[C@H](Cc1ccc(O)cc1)NC(=O)[C@@H](CCCNC(=N)N)NC(=O)[C@@H](CO)NC(=O)[C@H](Cc1ccccc1)NC(=O)[C@H](CC1CCCCC1)NC(=O)[C@H](CC(=O)O)NC(=O)[C@H](CCCCNC(=O)CCCc1ccc(I)cc1)NC(=O)CN1CCN(CC(=O)O)CCN(CC(=O)O)CCN(CC(=O)O)CC1)C(=O)N[C@@H](Cc1c[nH]c2ccccc12)C(=O)N[C@@H](CO)C(N)=O [[^177Lu]Lu-uPAR-01, metal not drawn]
